Assay results taken from PMC8466554, “Heteroaryl-Ethylenes as New Lead Compounds in the Fight against High Priority Bacterial Strains” (Antibiotics, 2021).
pIC50: −log10 of the molar value. “And” between values parts separate entries of the source, which are not always exact repeats. Identical values can stand only once. Like-named read-outs stand apart in the source and are kept apart here.

Legend:
CaCo-2 cells = assay: MTT cytotoxicity assay; type: cell-based, human; conditions: 24 h of incubation relative to untreated controls
Method: To evaluate the biological activity of the PBn series, compounds were screened for toxicity against the colon-rectal cancer cell line CaCo-2 (ATCC HTB-37). These human cancer cells were treated with solutions of the compounds at decreasing concentrations, starting from 100 μM up to 0.01 μM. The reference compound used for these assays was 5-Fluorouracil (5-Fu), a pyrimidine analogue belonging to the family of antimetabolite. […] Briefly, human colorectal adenocarcinoma cells (CaCo-2 HTB-37^TM Colorectal Adenocarcinoma Human, American Type Culture Collection, Manassas, VA, USA) were grown in Dulbecco’s MEM (DMEM) with 10% heat-inactivated fetal bovine serum, 2 mM L-Alanyl-L-Glutamine, penicillin-streptomycin (50 units-50 μg for mL) and incubated at 37 °C in a humidified atmosphere of 5% CO2, 95% air. CaCo-2 cells were plated in 96 well pates and incubated at 37 °C. The PBn series compounds and 5-FU were prepared as a 1 mM solution in 10 mL with 0.01% DMSO. Then, 24 h after plating, cells were treated with 20 μL of each solution. Untreated cells were used as controls. […] The results were read on a multiwell scanning spectrophotometer (AF2200 plate reader, Eppendorf, Milan, Italy), using a wavelength of 569 nm.

S.aureus Mu50-VISA = assay: MIC and MBC microtiter plate assay; type: cell-based, Staphylococcus aureus
S.aureus USA300-CAMRSA = assay: MIC and MBC microtiter plate assay; type: cell-based, Staphylococcus aureus
[1] = test system: E. faecalis ATCC51299-VRE; assay: MIC and MBC microtiter plate assay, also with different inocula; type: cell-based
[2] = test system: K. pneumoniae ATCC BAA-2814; assay: MIC microtiter plate assay; type: cell-based, Klebsiella pneumoniae; conditions: K. pneumoniae ATCC BAA-2814 (MDR strain)
[3] = test system: Gram-positive control strains; assay: MIC and MBC, summary over Gram-positive control strains; type: cell-based, S. aureus and Enterococcus spp.; conditions: over the Gram-positive control strains (S. aureus and Enterococcus spp.)
P. aeruginosa ATCC27853 = assay: MIC microtiter plate assay; type: cell-based, Pseudomonas aeruginosa
[4] = test system: E. faecalis ATCC29212-VSE; assay: MIC and MBC microtiter plate assay; type: cell-based
A. baumannii ATCC17978 = assay: MIC and MBC microtiter plate assay, also with different inocula; type: cell-based, Acinetobacter baumannii; conditions: A. baumannii ATCC17978
S.aureus ATCC12598-MSSA = assay: as above; type: cell-based, Staphylococcus aureus
S.aureus ATCC29213-MSSA = assay: MIC and MBC microtiter plate assay; type: cell-based, Staphylococcus aureus
E. coli ATCC25922 = assay: MIC and MBC microtiter plate assay, also with different inocula; type: cell-based, Escherichia coli
K. pneumoniae ATCC700603 = assay: MIC microtiter plate assay; type: cell-based, Klebsiella pneumoniae
[5] = E. faecalis ATCC51299-VRE, value in brackets
[6] = S.aureus ATCC12598-MSSA, value in brackets

**Q.** With `O=c1[nH]cc(F)c(=O)[nH]1` [5-FU, 5-Fluorouracil, reference compound] as the compound, how does the pIC50 (CaCo-2 cells) read?
**A.** Its pIC50 is 4.56.

**Q.** What about the pIC50 (CaCo-2 cells; Homo sapiens, Caco-2, 24 h) of the same compound?
**A.** Its pIC50 is 4.56.

**Q.** Which MBC (S.aureus Mu50-VISA) does the source give for `CC[n+]1ccc2c(c1)CCCC2=Cc1ccc(-c2ccc(Cl)cc2)o1.[I-]` [PB7] here?
**A.** The MBC was 16 µg/mL.

**Q.** What about the MIC (S.aureus Mu50-VISA) of the same compound?
**A.** The MIC was 16 µg/mL.

**Q.** And the MBC (S.aureus Mu50-VISA; value in brackets)?
**A.** The MBC was 34.50 µM.

**Q.** And the MIC (S.aureus Mu50-VISA; value in brackets)?
**A.** The MIC was 34.50 µM.

**Q.** What about the MBC (S.aureus USA300-CAMRSA) of the same compound?
**A.** Its MBC is 32 µg/mL.

**Q.** And the MIC (S.aureus USA300-CAMRSA)?
**A.** The MIC was 2 µg/mL.

**Q.** And the MBC (S.aureus USA300-CAMRSA; value in brackets)?
**A.** Its MBC is 69.00 µM.

**Q.** What about the MIC (S.aureus USA300-CAMRSA; value in brackets) of the same compound?
**A.** The MIC was 4.31 µM.

**Q.** And the MBC ([1]; E. faecalis ATCC51299-VRE)?
**A.** Its MBC is 128 µg/mL.

**Q.** And the MIC ([1]; E. faecalis ATCC51299-VRE)?
**A.** The MIC was 8 mg/L.

**Q.** What about the MBC [1, 5] of the same compound?
**A.** Its MBC is 276.02 µM.

**Q.** And the MIC [1, 5]?
**A.** Its MIC is 17.25 µM.

**Q.** And the MIC ([1]; E. faecalis ATCC51299, inoculum 1.00101 (1 × 10^1 CFU/mL))?
**A.** Its MIC is 8 mg/L and 17.25 μM.

**Q.** And the MIC ([1]; E. faecalis ATCC51299, inoculum 1.00102 (1 × 10^2 CFU/mL))?
**A.** Its MIC is 8 mg/L and 17.25 μM.

**Q.** And the MIC ([1]; E. faecalis ATCC51299, inoculum 1.00103 (1 × 10^3 CFU/mL))?
**A.** The MIC was 8 mg/L and 17.25 μM.

**Q.** And the MIC ([1]; E. faecalis ATCC51299, inoculum 1.00104 (1 × 10^4 CFU/mL))?
**A.** The MIC was 8 mg/L and 17.25 μM.

**Q.** What about the MIC ([1]; E. faecalis ATCC51299, inoculum 1.00105 (1 × 10^5 CFU/mL, standard)) of the same compound?
**A.** Its MIC is 8 mg/L and 17.25 μM.

**Q.** And the MIC ([1]; E. faecalis ATCC51299, inoculum 1.00106 (1 × 10^6 CFU/mL))?
**A.** Its MIC is 16 mg/L and 34.50 μM.

**Q.** And the MIC ([1]; E. faecalis ATCC51299, inoculum 1.00107 (1 × 10^7 CFU/mL))?
**A.** Its MIC is 32 mg/L and 69.00 μM.

**Q.** What about the MIC [2] of the same compound?
**A.** Its MIC is 64 µg/mL.

**Q.** What about the MIC ([2]; value in brackets) of the same compound?
**A.** The MIC was 138.01 µM.

**Q.** What about the MIC [3] of the same compound?
**A.** Its MIC is no more than 16 µg/mL.

**Q.** What about the MIC (P. aeruginosa ATCC27853) of the same compound?
**A.** Its MIC is greater than 128 µg/mL.

**Q.** What about the MIC (P. aeruginosa ATCC27853; value in brackets) of the same compound?
**A.** The MIC was greater than 276.02 µM.

**Q.** And the pIC50 (CaCo-2 cells)?
**A.** Its pIC50 is 5.87.

**Q.** What about the MBC [4] of the same compound?
**A.** The MBC was 128 µg/mL.

**Q.** What about the MIC [4] of the same compound?
**A.** Its MIC is 8 µg/mL.

**Q.** And the MBC ([4]; value in brackets)?
**A.** Its MBC is 276.02 µM.

**Q.** What about the MIC ([4]; value in brackets) of the same compound?
**A.** Its MIC is 17.25 µM.

**Q.** And the MIC (A. baumannii ATCC17978)?
**A.** The MIC was 32 µg/mL.

**Q.** And the MIC (A. baumannii ATCC17978; value in brackets)?
**A.** The MIC was 69.00 µM.

**Q.** What about the MIC (S.aureus ATCC12598-MSSA; S. aureus ATCC12598, inoculum 1.00101 (1 × 10^1 CFU/mL)) of the same compound?
**A.** The MIC was 2 mg/L and 4.31 μM.

**Q.** And the MIC (S.aureus ATCC12598-MSSA; S. aureus ATCC12598, inoculum 1.00102 (1 × 10^2 CFU/mL))?
**A.** The MIC was 4 mg/L and 8.63 μM.

**Q.** What about the MIC (S.aureus ATCC12598-MSSA; S. aureus ATCC12598, inoculum 1.00103 (1 × 10^3 CFU/mL)) of the same compound?
**A.** Its MIC is 8.63 μM and 4 mg/L.

**Q.** What about the MIC (S.aureus ATCC12598-MSSA; S. aureus ATCC12598, inoculum 1.00104 (1 × 10^4 CFU/mL)) of the same compound?
**A.** Its MIC is 4 mg/L and 8.63 μM.

**Q.** And the MIC (S.aureus ATCC12598-MSSA; S. aureus ATCC12598, inoculum 1.00105 (1 × 10^5 CFU/mL, standard))?
**A.** Its MIC is 8 mg/L and 17.25 μM.

**Q.** What about the MIC (S.aureus ATCC12598-MSSA; S. aureus ATCC12598, inoculum 1.00106 (1 × 10^6 CFU/mL)) of the same compound?
**A.** The MIC was 8 mg/L and 17.25 μM.

**Q.** What about the MIC (S.aureus ATCC12598-MSSA; S. aureus ATCC12598, inoculum 1.00107 (1 × 10^7 CFU/mL)) of the same compound?
**A.** Its MIC is 32 mg/L and 69.00 μM.

**Q.** What about the MBC (S.aureus ATCC12598-MSSA; S.aureus ATCC12598-MSSA) of the same compound?
**A.** The MBC was 8 µg/mL.

**Q.** And the MIC (S.aureus ATCC12598-MSSA; S.aureus ATCC12598-MSSA)?
**A.** The MIC was 8 mg/L.

**Q.** And the MBC (S.aureus ATCC12598-MSSA; [6])?
**A.** Its MBC is 17.25 µM.

**Q.** What about the MIC (S.aureus ATCC12598-MSSA; [6]) of the same compound?
**A.** Its MIC is 17.25 µM.

**Q.** And the MBC (S.aureus ATCC29213-MSSA)?
**A.** Its MBC is 4 µg/mL.

**Q.** And the MIC (S.aureus ATCC29213-MSSA)?
**A.** Its MIC is 4 µg/mL.

**Q.** What about the MBC (S.aureus ATCC29213-MSSA; value in brackets) of the same compound?
**A.** Its MBC is 8.63 µM.

**Q.** And the MIC (S.aureus ATCC29213-MSSA; value in brackets)?
**A.** Its MIC is 8.63 µM.

**Q.** And the MIC (E. coli ATCC25922)?
**A.** The MIC was 32 µg/mL.

**Q.** What about the MIC (E. coli ATCC25922; value in brackets) of the same compound?
**A.** Its MIC is 69.00 µM.

**Q.** What about the MIC (K. pneumoniae ATCC700603) of the same compound?
**A.** Its MIC is 128 µg/mL.

**Q.** And the MIC (K. pneumoniae ATCC700603; value in brackets)?
**A.** The MIC was 276.02 µM.

**Q.** With `C[n+]1c(/C=C/c2ccc(-c3ccccc3)s2)ccc2ccccc21.[I-]` [PB3] as the compound, how does the MIC (S.aureus Mu50-VISA) read?
**A.** Its MIC is 32 µg/mL.

**Q.** What about the MIC (S.aureus Mu50-VISA; value in brackets) of the same compound?
**A.** The MIC was 70.28 µM.

**Q.** What about the MIC (S.aureus USA300-CAMRSA) of the same compound?
**A.** Its MIC is 2 µg/mL.

**Q.** And the MIC (S.aureus USA300-CAMRSA; value in brackets)?
**A.** Its MIC is 4.39 µM.

**Q.** And the MIC ([1]; E. faecalis ATCC51299-VRE)?
**A.** Its MIC is 32 mg/L.

**Q.** What about the MIC [1, 5] of the same compound?
**A.** The MIC was 70.28 µM.

**Q.** And the MIC (P. aeruginosa ATCC27853)?
**A.** Its MIC is greater than 128 µg/mL.

**Q.** What about the MIC (P. aeruginosa ATCC27853; value in brackets) of the same compound?
**A.** The MIC was 281.10 µM.

**Q.** What about the pIC50 (CaCo-2 cells) of the same compound?
**A.** The pIC50 was 6.06.

**Q.** What about the MIC [4] of the same compound?
**A.** The MIC was 32 µg/mL.

**Q.** What about the MIC ([4]; value in brackets) of the same compound?
**A.** The MIC was 70.28 µM.

**Q.** What about the MIC (A. baumannii ATCC17978) of the same compound?
**A.** Its MIC is 64 µg/mL.

**Q.** And the MIC (A. baumannii ATCC17978; value in brackets)?
**A.** Its MIC is 140.55 µM.

**Q.** And the MIC (S.aureus ATCC12598-MSSA; S.aureus ATCC12598-MSSA)?
**A.** The MIC was 8 mg/L.

**Q.** What about the MIC (S.aureus ATCC12598-MSSA; [6]) of the same compound?
**A.** The MIC was 17.57 µM.

**Q.** And the MIC (S.aureus ATCC29213-MSSA)?
**A.** Its MIC is 4 µg/mL.

**Q.** What about the MIC (S.aureus ATCC29213-MSSA; value in brackets) of the same compound?
**A.** The MIC was 8.78 µM.

**Q.** And the MIC (E. coli ATCC25922)?
**A.** The MIC was 16 µg/mL.

**Q.** And the MIC (E. coli ATCC25922; value in brackets)?
**A.** Its MIC is 35.14 µM.

**Q.** What about the MIC (K. pneumoniae ATCC700603) of the same compound?
**A.** The MIC was greater than 128 µg/mL.

**Q.** And the MIC (K. pneumoniae ATCC700603; value in brackets)?
**A.** Its MIC is greater than 281.10 µM.
